Measured values from ChEMBL document CHEMBL1132589, “Phosphotyrosine-containing dipeptides as high-affinity ligands for the p56lck SH2 domain” (J Med Chem, 1999).
pKd: −log10 of the molar value. Where a SMILES comes first, the peptide text is derived from it. [ ]: non-standard residue; d: D form. The star is where a group is joined. pY = N[C@@H](Cc1ccc(OP(=O)(O)O)cc1)C(=O)O; NHPhenethyl = c1ccc(CCN*)cc1; NHBn = c1ccc(CN*)cc1; NHPh = c1ccc(N*)cc1

Biological target: Tyrosine-protein kinase Lck (Homo sapiens, UniProt P06239)
Sequence (P06239 whole entry): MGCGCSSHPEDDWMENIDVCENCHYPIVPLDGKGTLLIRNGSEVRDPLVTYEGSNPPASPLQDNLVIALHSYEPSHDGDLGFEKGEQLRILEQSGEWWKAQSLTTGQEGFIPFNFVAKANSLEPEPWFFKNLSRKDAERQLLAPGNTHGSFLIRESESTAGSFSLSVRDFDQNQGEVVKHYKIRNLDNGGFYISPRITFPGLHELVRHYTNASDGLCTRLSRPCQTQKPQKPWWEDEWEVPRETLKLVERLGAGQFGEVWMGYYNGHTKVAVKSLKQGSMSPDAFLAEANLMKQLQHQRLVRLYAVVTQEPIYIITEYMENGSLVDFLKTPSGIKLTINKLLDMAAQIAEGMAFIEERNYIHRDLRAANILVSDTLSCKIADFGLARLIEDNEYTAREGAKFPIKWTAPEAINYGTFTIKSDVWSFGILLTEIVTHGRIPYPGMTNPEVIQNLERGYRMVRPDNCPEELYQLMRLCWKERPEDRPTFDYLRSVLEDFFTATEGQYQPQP
Description: Binding affinity against p56 Lck tyrosine kinase SH2 domain was measured using glutathione S-transferase (GST) fusion protein

Row | SMILES | pKd
1 | CC(=O)N[C@@H](Cc1ccc(OP(=O)(O)O)cc1)C(=O)N[C@@H](CC(C)C)C(=O)NCc1cccnc1 | 4.47
2 | CC(=O)N[C@@H](Cc1ccc(OP(=O)(O)O)cc1)C(=O)N[C@@H](CC(C)C)C(=O)NCc1ccncc1 | 4.80
3 | CC(=O)N[C@@H](Cc1ccc(OP(=O)(O)O)cc1)C(=O)N[C@@H](CC(C)C)C(=O)NCc1ccc(C(C)(C)C)cc1 | 5.10
4 | CC(=O)N[C@@H](Cc1ccc(OP(=O)(O)O)cc1)C(=O)N[C@@H](CC(C)C)C(=O)N[C@@H](C)c1ccc(C)cc1 | 5.82
5 | CC(=O)N[C@@H](Cc1ccc(OP(=O)(O)O)cc1)C(=O)N[C@@H](CC(C)C)C(=O)NCc1ccccn1 | 4.51
6 | COc1ccc(CNC(=O)[C@H](CC(C)C)NC(=O)[C@H](Cc2ccc(OP(=O)(O)O)cc2)NC(C)=O)cc1OC | 4.92
7 | COc1ccc(CNC(=O)[C@H](CC(C)C)NC(=O)[C@H](Cc2ccc(OP(=O)(O)O)cc2)NC(C)=O)cc1 | 5.82
8 | CC(=O)N[C@@H](Cc1ccc(OP(=O)(O)O)cc1)C(=O)N[C@@H](CC(C)C)C(=O)NCc1ccc(C)cc1 | 5.60
9 | CC(=O)N[C@@H](Cc1ccc(OP(=O)(O)O)cc1)C(=O)N[C@@H](CC(C)C)C(=O)N[C@H](C)c1ccc(C)cc1 | 4.57
10 | CC(=O)N[C@@H](Cc1ccc(OP(=O)(O)O)cc1)C(=O)N[C@@H](CC(C)C)C(=O)N(C)Cc1ccc(C)cc1 | 5.70
11 | CC(=O)N[C@@H](Cc1ccc(OP(=O)(O)O)cc1)C(=O)N[C@@H](CC(C)C)C(=O)NCc1ccc(C(C)C)cc1 | 6.10
12 | CC(=O)N[C@@H](Cc1ccc(OP(=O)(O)O)cc1)C(=O)N[C@@H](CC(C)C)C(=O)N[C@@H](C)c1ccc(C(C)C)cc1 | 6.70
13 | CC(=O)N[C@@H](Cc1ccc(OP(=O)(O)O)cc1)C(=O)N[C@@H](CC(C)C)C(=O)NCc1ccc(N(C)C)cc1 | 4.70
14 | COc1ccccc1CNC(=O)[C@H](CC(C)C)NC(=O)[C@H](Cc1ccc(OP(=O)(O)O)cc1)NC(C)=O | 4.77
15 | COc1ccc(CNC(=O)[C@H](CCC(=O)O)NC(=O)[C@H](Cc2ccc(OP(=O)(O)O)cc2)NC(C)=O)cc1 | 6.70
16 | COc1cccc(CNC(=O)[C@H](CC(C)C)NC(=O)[C@H](Cc2ccc(OP(=O)(O)O)cc2)NC(C)=O)c1 | 5.05
17 | CC(=O)N[C@@H](Cc1ccc(OP(=O)(O)O)cc1)C(=O)N[C@@H](CCC(=O)O)C(=O)Nc1ccccc1 (Ac-[pY]-Glu-NHPh) | 5.10
18 | CC(=O)N[C@@H](Cc1ccc(OP(=O)(O)O)cc1)C(=O)N[C@@H](CCC(=O)O)C(=O)NCCc1ccccc1 (Ac-[pY]-Glu-NHPhenethyl) | 5.40
19 | CC(=O)N[C@@H](Cc1ccc(OP(=O)(O)O)cc1)C(=O)N[C@@H](CC(C)C)C(=O)NCc1ccccc1 (Ac-[pY]-Leu-NHBn) | 4.80
